Laboratory results: patent EP0816848A1, “Method for comparative screening of substances with pharmacological activity” (BOEHRINGER INGELHEIM INTERNATIONAL GmbH, priority 1996, dated 1998)

Legend:
Ras = target: T1, Ras (Homo sapiens, UniProt P01112, G12V); experiment: Proliferation assay (MTS) dose-response, Ras test cell line ("FHR V12"); type: cell-based; conditions: Ras test cell line "FHR V12" (Fig. 7)
T1 construct: expressed in transfected cells
Experimental: (§1) FDC-P1 Zellen (Dexter et al., 1980) wurden in IMDM Medium (BioWhittaker), versetzt mit 10% hitzeinaktiviertem fötalem Kälberserum (FCS), 2 mM Glutamin, 50 µM β-Mercaptoäthanol und 1% IL-3 angesetzt und bei 37°C in 5% CO2 inkubiert. 10^7 Zellen pro Transfektion wurden 5 min bei 1200 UpM bei Raumtemperatur abzentrifugiert (Heraeus Minifuge), einmal mit serumfreiem RPMI-1640 Medium gewaschen, und in 1 ml serumfreiem Medium suspendiert. 800 µl dieser Zellsuspension wurden in einer Elektroporationsküvette mit 20 µg Plasmid pGDV12ras gemischt und mit einem einzelnen Stromstoß von 280 V, 980 µF und 1000 ms elektroporiert (Progenetor II, Hoefer Instruments). Die Zellen wurden in 10 ml Kulturmedium mit 1% IL-3 verdünnt und bei 37°C, 5% CO2 inkubiert. Zwei Tage nach der Transfektion wurden die Zellen mit frischem Medium 3-fach verdünnt und 250 µg/ml G-418 zur Selektion auf Neomycin-resistenz zugesetzt. An den darauffolgenden Tagen wurde die G-418 Konzentration auf 500, 750 und 1000 µg/ml erhöht. Tote Zellen wurden mittels Zentrifugation durch einen Ficoll-Gradienten entfernt. Dazu wurden die Zellen zuerst mittels Zentrifugation (5 min, 1200 UpM) in einem geringen Volumen aufkonzentriert und in einem Zentrifugenröhrchen über Ficoll-Paque (Pharmacia) geschichtet. […]

HGF-R = experiment: Proliferation assay (MTS) dose-response, HGF-R test cell line ("TPRmet"); type: cell-based, human; conditions: HGF-R test cell line "TPRmet" (Fig. 7)
HER-2 = target: T2, HER-2 (Homo sapiens, UniProt P04626, V659E); experiment: Proliferation assay (MTS) dose-response, HER-2 test cell line; type: cell-based; conditions: HER-2 test cell line (Fig. 7)
T2 construct: enthält nun die komplette kodierende Region der mutierten, konstitutiv aktiven Form HER2(V659E); expressed in transfected cells
T2 sequence (P04626 23-1255 V659E): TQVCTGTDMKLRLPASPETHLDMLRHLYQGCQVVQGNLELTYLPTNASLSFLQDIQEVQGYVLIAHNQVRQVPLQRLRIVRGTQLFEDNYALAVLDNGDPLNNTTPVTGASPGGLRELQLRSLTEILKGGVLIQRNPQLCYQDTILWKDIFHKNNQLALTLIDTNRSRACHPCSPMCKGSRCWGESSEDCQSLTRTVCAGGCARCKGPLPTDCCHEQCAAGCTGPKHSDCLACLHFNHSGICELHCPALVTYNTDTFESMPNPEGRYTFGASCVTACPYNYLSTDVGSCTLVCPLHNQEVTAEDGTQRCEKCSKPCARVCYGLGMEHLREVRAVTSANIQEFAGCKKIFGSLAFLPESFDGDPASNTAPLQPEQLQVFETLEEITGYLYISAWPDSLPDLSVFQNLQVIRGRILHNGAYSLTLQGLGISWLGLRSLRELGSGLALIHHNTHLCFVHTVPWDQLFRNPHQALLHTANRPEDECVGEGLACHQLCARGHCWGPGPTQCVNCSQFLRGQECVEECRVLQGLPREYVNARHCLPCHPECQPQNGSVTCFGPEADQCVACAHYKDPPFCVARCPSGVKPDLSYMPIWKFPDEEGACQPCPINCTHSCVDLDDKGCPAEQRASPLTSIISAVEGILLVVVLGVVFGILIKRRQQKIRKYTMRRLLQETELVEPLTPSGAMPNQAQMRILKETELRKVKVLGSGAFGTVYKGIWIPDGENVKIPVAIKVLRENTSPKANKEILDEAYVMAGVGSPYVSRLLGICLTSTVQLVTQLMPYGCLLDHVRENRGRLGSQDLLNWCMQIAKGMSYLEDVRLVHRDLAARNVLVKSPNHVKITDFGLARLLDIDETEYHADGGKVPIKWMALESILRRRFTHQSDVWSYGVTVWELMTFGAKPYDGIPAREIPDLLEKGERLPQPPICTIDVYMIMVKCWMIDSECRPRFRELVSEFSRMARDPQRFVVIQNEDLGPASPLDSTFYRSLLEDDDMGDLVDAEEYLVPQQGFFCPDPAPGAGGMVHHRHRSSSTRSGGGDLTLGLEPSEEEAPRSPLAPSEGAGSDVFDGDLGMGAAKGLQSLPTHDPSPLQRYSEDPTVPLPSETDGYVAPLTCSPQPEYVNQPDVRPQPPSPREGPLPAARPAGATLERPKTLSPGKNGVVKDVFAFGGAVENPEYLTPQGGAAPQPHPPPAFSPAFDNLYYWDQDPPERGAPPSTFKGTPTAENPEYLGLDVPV
Experimental: FDC-P1-Zellen (Dexter et al., 1980), die IL-3-abhängig wachsen, wurden mit Plasmid pAHygCMVHer2(V659E) folgendermaßen transfiziert: Etwa 1x10^7 Zellen wurden in IMDM-Medium (Bio-Whittaker) mit 10 µg Plasmid DNA gemischt und mit einem Elektroporator (Hoefer, Progenetor II) bei 980 µF, 280 V für 1000 ms elektroporiert. Die Zellen wurden in IMDM-Medium in Anwesenheit von 10% hitzeinaktiviertem fötalem Kälberserum, 50 µM β-Mercaptoethanol, Standardantibiotika, und 1% IL-3 bei 37°C unter 5% CO2 gehalten und durch Zugabe von 300 mg/l Hygromycin B (Boehringer Mannheim) selektioniert. Nach erfolgreicher Selektion wurden die Zellen langsam von IL-3 entwöhnt, der IL-3-unabhängig wachsende Zellpool anschließend in Methocel subkloniert. Einzelne Klone wurden gepickt und in Medium ohne IL-3 hochgezogen.
Einzelne Klone wurden in einem Fluoreszenz-aktivierten Zell-Sorter (Becton-Dickinson, FACSort) auf Oberflächenexpression von HER2 getestet, dabei wurde als primärer Antikörper ein gegen die extrazelluläre Domäne von HER2 gerichteter Maus-Antikörper verwendet (Oncogene Science, c-neu (Ab-2)), und als sekundärer Antikörper ein Fluorescein Isothiocyanat (FITC)-konjugierter anti-Maus IgG Antikörper (Dianova, Hamburg). Der Subklon mit der besten Oberflächenexpression von HER2(V659E), genannt FDCP/Her2-C42#16, wurde für das Screenen verwendet. […]

EGF-Rezeptor = EGF-Rezeptor (Homo sapiens, UniProt P00533); experiment: c-fos promoter luciferase reporter assay in KB-B4 cells, EGF-induced; type: cell-based; conditions: 1 ng/ml EGF, 6 h (Fig. 6)
Chain of EGF-Rezeptor (P00533 25-1210): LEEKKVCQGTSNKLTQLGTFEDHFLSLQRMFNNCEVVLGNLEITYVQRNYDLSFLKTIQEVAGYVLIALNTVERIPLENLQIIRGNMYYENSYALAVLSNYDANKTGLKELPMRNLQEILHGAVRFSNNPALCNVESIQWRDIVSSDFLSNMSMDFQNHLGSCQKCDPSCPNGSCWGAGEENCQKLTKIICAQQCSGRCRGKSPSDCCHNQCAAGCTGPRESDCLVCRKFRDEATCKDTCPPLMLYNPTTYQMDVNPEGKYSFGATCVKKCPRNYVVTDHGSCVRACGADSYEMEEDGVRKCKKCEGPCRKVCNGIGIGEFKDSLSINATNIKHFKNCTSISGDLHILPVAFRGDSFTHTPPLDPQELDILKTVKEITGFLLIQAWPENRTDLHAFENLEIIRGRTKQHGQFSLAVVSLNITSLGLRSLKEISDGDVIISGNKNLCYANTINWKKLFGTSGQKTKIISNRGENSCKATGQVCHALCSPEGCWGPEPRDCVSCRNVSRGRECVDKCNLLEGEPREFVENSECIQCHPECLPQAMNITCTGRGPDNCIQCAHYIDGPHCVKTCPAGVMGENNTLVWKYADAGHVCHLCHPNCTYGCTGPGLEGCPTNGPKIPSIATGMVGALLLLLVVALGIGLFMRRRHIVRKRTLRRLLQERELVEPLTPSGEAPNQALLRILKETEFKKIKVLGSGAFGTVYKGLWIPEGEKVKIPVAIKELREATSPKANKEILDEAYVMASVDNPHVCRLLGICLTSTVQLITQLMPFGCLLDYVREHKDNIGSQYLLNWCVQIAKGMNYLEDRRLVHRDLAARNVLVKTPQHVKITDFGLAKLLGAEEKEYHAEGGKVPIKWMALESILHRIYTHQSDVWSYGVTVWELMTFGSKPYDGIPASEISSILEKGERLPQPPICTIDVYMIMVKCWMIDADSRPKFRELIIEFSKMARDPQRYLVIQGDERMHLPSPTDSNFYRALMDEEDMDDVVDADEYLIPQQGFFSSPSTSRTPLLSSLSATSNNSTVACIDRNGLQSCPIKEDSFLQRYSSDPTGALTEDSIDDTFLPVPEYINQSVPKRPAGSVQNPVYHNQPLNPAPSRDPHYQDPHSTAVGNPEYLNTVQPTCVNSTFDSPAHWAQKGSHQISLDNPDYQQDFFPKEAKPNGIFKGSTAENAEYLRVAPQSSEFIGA
Experimental: Die humane epidermoide Karzinomzellinie KB (ATCC CCL 17), wurde mit Plasmid pBHfosluci folgendermaßen transfiziert: Etwa 1x10^6 Zellen pro 10 cm Platte wurden in DMEM-Medium (Bio-Whittaker) in Anwesenheit von 10% hitzeinaktiviertem fötalem Kälberserum in mehrere Platten ausgesät. Am nächsten Tag wurde 20 µg Plasmid-DNA mit Calcium-Phosphat präzipitiert und das Präzipitat langsam auf die Zellen getropft. Nach 4 Stunden wurden die Zellen für 2 min in 15% Glycerin inkubiert, gewaschen und dann in DMEM-Medium in Anwesenheit von 10% hitzeinaktiviertem fötalem Kälberserum und Standardantibiotika bei 37°C unter 5% CO2 gehalten. Die Zellen wurden durch Zugabe von 0.5 g/l G418 (GIBCO BRL) selektioniert. Einzelne G418-resistente Zellklone wurden hochgezogen und auf Induzierbarkeit der Luciferaseexpression durch Zugabe von HGF (Sigma) getestet. Ungefähr 10000 Zellen jedes Klons wurden in 6facher Ausfertigung in 200 µl pro Vertiefung in einer lichtundurchlässigen, gewebekulturbeschichteten Mikrotiterplatte mit 96 Vertiefungen (Microlite™, Dynatech Laboratories) ausgesät und über Nacht bei 37°C inkubiert. Jeweils drei Ansätze wurden mit 20 ng/ml HGF behandelt und weitere 6 h inkubiert. Anschließend wurde das Medium entfernt und die Zellen zweimal mit PBS gewaschen. […]

H-ras^Val12 [1] = experiment: Inhibition of IL-3 independent growth of H-ras^Val12 transfected FDC-P1 cells (FHRV12cc21), viability by MTS assay; type: cell-based, mouse; conditions: IL-3 free medium, relative absorption (Fig. 1)
Experimental: as §1

H-ras^Val12 [2] = experiment: Detection of inhibition of Ras farnesylation (immunoprecipitation, SDS gel, Western blot) in FHRV12cc21 cells; type: cell-based, mouse; conditions: 5 µM, 48 h, 1% IL-3
Experimental: Nachweis der H-ras^Val12 Expression FHRV12cc21 und untransfizierte FDC-P1 Zellen wurden in IMDM Medium mit 10% FCS und 1% IL-3 gezüchtet. Zum Nachweis der Hemmung der posttranslationalen Modifikation von H-ras^Val12 durch Farnesylierung wurden die Zellen für 48 Stunden mit 5 µM des Protein-Farnesyltransferase-Inhibitors L-739.749 (Kohl et al., 1994) inkubiert. Die Zellen wurden mit PBS gewaschen und in PBSTDS (1% Triton X-100, 0.5% Natriumdesoxycholat, 0.1% Natriumdodecylsulfat in PBS) 5 min bei 4°C lysiert. Die Zellysate wurden durch Zentrifugation (20 min 14.000x g, 4°C) geklärt. Ras Proteine wurden durch Zusatz von 1 µg monoklonalen Ratten Antikörper Y13-238 (Oncogene Science) und Protein-G Plus / Protein-A Agarose (Oncogene Science) über Nacht bei 4°C immunpräzipitiert. Die Präzipitate wurden zweimal mit PBSTDS Puffer gewaschen und anschließend in SDS-Probenpuffer mit 3% β-Mercaptoethanol ausgenommen. Die Proteine wurden in einem 20%igen SDS-Polyacrylamidgel aufgetrennt, auf eine Immobilon-Membran (Millipore) transferiert und nach Absättigen der Membran mit 10% FCS, 1% Rinderserumalbumin, 1% Tween-20 in PBS, durch aufeinanderfolgende Inkubation mit einem Ras^Val12 spezifischen monoklonalen Antikörper (pan-Ras^Val12, Oncogene Science) und einem sekundären anti-Maus-IgG - Alkalische Phosphatase-Konjugat durch Färbereaktion mit NBT und BCIP (Promega) nachgewiesen. […]

H-ras^Val12 [3] = experiment: Inhibition of IL-3 independent growth of H-ras^Val12 transfected FDC-P1 cells (FHRV12cc21), DNA synthesis by [3H]thymidine incorporation; type: cell-based, mouse; conditions: IL-3 free medium (Fig. 2)
Experimental: as §1

T1 sequence (P01112 1-186 G12V): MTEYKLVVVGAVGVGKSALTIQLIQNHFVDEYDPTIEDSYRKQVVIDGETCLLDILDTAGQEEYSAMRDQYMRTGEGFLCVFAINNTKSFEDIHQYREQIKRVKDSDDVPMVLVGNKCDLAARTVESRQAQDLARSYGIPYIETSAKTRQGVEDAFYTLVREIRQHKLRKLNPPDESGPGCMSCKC

## Clc1cccc(Nc2ncnc3cnc(NC4CC4)nc23)c1 [4-[(3-Chlorphenyl)amino]-6-(cyclopropylamino)-pyrimido-[5,4-d]pyrimidin]
Ras
  Konzentration, bei der Effekte auf die Proliferation der Zellen zu messen sind, relative to IC50 on the EGF-dependent cell line: ≥ 100 fach
HGF-R
  Konzentration, bei der Effekte auf die Proliferation der Zellen zu messen sind, relative to IC50 on the EGF-dependent cell line: ≥ 100 fach
HER-2
  Konzentration, bei der Effekte auf die Proliferation der Zellen zu messen sind, relative to IC50 on the EGF-dependent cell line: ≥ 100 fach

## COc1cc2ncnc(Nc3cccc(C)c3)c2cc1OC [6,7-Dimethoxy-4-(3-methylphenylamino)chinazolin]
EGF-Rezeptor
  Inhibierung der Luciferase-Induktion durch EGF: inhibitorische Wirkung

## CC[C@H](C)[C@@H](CO[C@@H](Cc1ccccc1)C(=O)N[C@@H](CCS(C)(=O)=O)C(=O)OC)NC[C@@H](N)CS [L-739.749, 2(S)-{2(S)-[2(R)-Amino-3-mercapto]propylamino-3(S)-methyl}pentyloxy-3-phenylpropionylmethioninsulfonmethyl ester]
H-ras^Val12 [1]
  Hemmung der H-ras^Val12 abhängigen Proliferation (Viabilität): Hemmung der H-ras^Val12 abhängigen Proliferation (Viabilität)
H-ras^Val12 [2]
  Ras-Protein in der unmodifizierten (nicht farnesylierten) Form: > 50%
H-ras^Val12 [3]
  Hemmung der H-ras^Val12 abhängigen Proliferation (DNA-Synthese): Hemmung der H-ras^Val12 abhängigen Proliferation (DNA-Synthese)
